Converted amounts (≈) assume the structure as drawn. The source made the active and inactive calls. No cut-off for these calls is given here.

Assay [1] deals with Bacillus subtilis. In words: Antibacterial activity against Bacillus subtilis MTCC 2451 assessed as growth inhibition after 24 hr by broth dilution method. In kind it is functional. Conditions: MTCC 2451, 24 h. (Broth dilution looks for growth in wells or tubes with falling amounts of substance.)
The test system of assay [2] is Bacillus subtilis. Kind of assay: Antibacterial activity against Bacillus subtilis MTCC 2451 assessed as growth inhibition at 2 mg/mL after 24 hr by disk diffusion method. In kind it is functional. Conditions: for zone of inhibition at 2000 µg/mL: MTCC 2451, 24 h, read-out: DIZ. In general terms: In agar diffusion tests the substance spreads into inoculated agar from a disc or well.

In assay [3] the test system is Goffeauzyma gastrica. In words: Antifungal activity against Cryptococcus gastricus MTCC 1715 assessed as growth inhibition at 2 mg/mL after 48 hr by disk diffusion method. In kind it is functional.
For assay [4], the system named is Saccharomyces cerevisiae. In words: Antifungal activity against Saccharomyces cerevisiae MTCC 172 assessed as growth inhibition after 48 hr by broth dilution method. In kind it is functional.
Assay [5] has as its system Staphylococcus aureus. In words: Antibacterial activity against Staphylococcus aureus MTCC 96 assessed as growth inhibition after 24 hr by broth dilution method. In kind it is functional. Conditions: MTCC 96, 24 h.
Assay [6] relates to Escherichia coli. Kind of assay: Antibacterial activity against Escherichia coli MTCC 82 assessed as growth inhibition after 24 hr by broth dilution method. In kind it is functional. Conditions: MTCC 82, 24 h.
The test system of assay [7] is Escherichia coli. Kind of assay: Antibacterial activity against Escherichia coli MTCC 82 assessed as growth inhibition at 2 mg/mL after 24 hr by disk diffusion method. Conditions: for zone of inhibition at 2000 µg/mL: MTCC 82, 24 h, read-out: DIZ. In kind it is functional.
The subject of assay [8] is Salmonella typhi. Kind of assay: Antibacterial activity against Salmonella enterica subsp. enterica serovar Typhi MTCC 1251 assessed as growth inhibition after 24 hr by broth dilution method. In kind it is functional, organism-based.
In assay [9] the test system is Candida albicans. In words: Antifungal activity against Candida albicans MTCC 3018 assessed as growth inhibition after 48 hr by broth dilution method. In kind it is functional.
Assay [10] relates to Salmonella typhi. In words: Antibacterial activity against Salmonella enterica subsp. enterica serovar Typhi MTCC 1251 assessed as growth inhibition at 2 mg/mL after 24 hr by disk diffusion method. In kind it is functional, organism-based.
Assay [11] deals with Pseudomonas aeruginosa. In words: Antibacterial activity against Pseudomonas aeruginosa MTCC 2642 assessed as growth inhibition after 24 hr by broth dilution method. In kind it is functional.
Assay [12] deals with Pseudomonas aeruginosa. In words: Antibacterial activity against Pseudomonas aeruginosa MTCC 2642 assessed as growth inhibition at 2 mg/mL after 24 hr by disk diffusion method. In kind it is functional.
In assay [13] the test system is Candida albicans. In words: Antifungal activity against Candida albicans MTCC 3018 assessed as growth inhibition at 2 mg/mL after 48 hr by disk diffusion method. In kind it is functional.
Assay [14] relates to Saccharomyces cerevisiae. In words: Antifungal activity against Saccharomyces cerevisiae MTCC 172 assessed as growth inhibition at 2 mg/mL after 48 hr by disk diffusion method. In kind it is functional. Conditions: for zone of inhibition at 2000 µg/mL: MTCC 172, 48 h, read-out: DIZ.
The subject of assay [15] is Goffeauzyma gastrica. Kind of assay: Antifungal activity against Cryptococcus gastricus MTCC 1715 assessed as growth inhibition after 48 hr by broth dilution method. In kind it is functional.
The test system of assay [16] is Staphylococcus aureus. Kind of assay: Antibacterial activity against Staphylococcus aureus MTCC 96 assessed as growth inhibition at 2 mg/mL after 24 hr by disk diffusion method. In kind it is functional. Particulars: for zone of inhibition at 2000 µg/mL: MTCC 96, 24 h, read-out: DIZ.
Assay [17] has as its system Candida albicans. In words: Antifungal activity against Candida albicans MTCC 3018 assessed as growth inhibition at 10 ug/disk after 48 hr by disk diffusion method. In kind it is functional. Conditions: MTCC 3018, 48 h, read-out: DIZ.
In assay [18] the test system is Goffeauzyma gastrica. In words: Antifungal activity against Cryptococcus gastricus MTCC 1715 assessed as growth inhibition at 10 ug/disk after 48 hr by disk diffusion method. In kind it is functional. Particulars: MTCC 1715, 48 h, read-out: DIZ.
The test system of assay [19] is Saccharomyces cerevisiae. Kind of assay: Antifungal activity against Saccharomyces cerevisiae MTCC 172 assessed as growth inhibition at 10 ug/disk after 48 hr by disk diffusion method. Conditions: MTCC 172, 48 h, read-out: DIZ. In kind it is functional.
Assay [20] relates to CV-1. Kind of assay: Cytotoxicity against Chlorocebus aethiops (African green monkey) CV1 cells assessed as growth inhibition at 30 uM after 48 hr by SRB assay. In kind it is functional. Conditions: CV-1, 48 h, read-out: GI. A general note: In SRB staining, fixed cells bind dye roughly in proportion to their protein.
The subject of assay [21] is OVCAR-5. In words: Cytotoxicity against Homo sapiens (human) OVCAR5 cells assessed as growth inhibition at 100 uM after 48 hr by SRB assay. Particulars: OVCAR-5, 48 h, read-out: GI. In kind it is functional.
In assay [22] the test system is MCF7. Kind of assay: Cytotoxicity against Homo sapiens (human) MCF7 cells assessed as growth inhibition at 30 uM after 48 hr by SRB assay. In kind it is functional. Conditions: MCF7, 48 h, read-out: GI.
Assay [23] deals with MCF7. Kind of assay: Cytotoxicity against Homo sapiens (human) MCF7 cells assessed as growth inhibition at 50 uM after 48 hr by SRB assay. In kind it is functional. Conditions: MCF7, 48 h, read-out: GI.
Assay [24] concerns THP-1. Kind of assay: Cytotoxicity against Homo sapiens (human) THP1 cells assessed as growth inhibition at 10 uM after 48 hr by SRB assay. Particulars: THP-1, 48 h, read-out: GI. In kind it is functional.
Assay [25] relates to MCF7. Kind of assay: Cytotoxicity against Homo sapiens (human) MCF7 cells assessed as growth inhibition at 100 uM after 48 hr by SRB assay. In kind it is functional. Particulars: MCF7, 48 h, read-out: GI.
The test system of assay [26] is OVCAR-5. In words: Cytotoxicity against Homo sapiens (human) OVCAR5 cells assessed as growth inhibition at 50 uM after 48 hr by SRB assay. Conditions: OVCAR-5, 48 h, read-out: GI. In kind it is functional.
Assay [27] deals with THP-1. In words: Cytotoxicity against Homo sapiens (human) THP1 cells assessed as growth inhibition after 48 hr by SRB assay. In kind it is functional, cell-based. Conditions: THP-1, 48 h.
In assay [28] the test system is THP-1. Kind of assay: Cytotoxicity against Homo sapiens (human) THP1 cells assessed as growth inhibition at 50 uM after 48 hr by SRB assay. Particulars: THP-1, 48 h, read-out: GI. In kind it is functional.
Assay [29] deals with MCF7. Kind of assay: Cytotoxicity against Homo sapiens (human) MCF7 cells assessed as growth inhibition after 48 hr by SRB assay. In kind it is functional, cell-based. Particulars: MCF7, 48 h.
The test system of assay [30] is OVCAR-5. In words: Cytotoxicity against Homo sapiens (human) OVCAR5 cells assessed as growth inhibition at 10 uM after 48 hr by SRB assay. In kind it is functional. Particulars: OVCAR-5, 48 h, read-out: GI.
The subject of assay [31] is THP-1. In words: Cytotoxicity against Homo sapiens (human) THP1 cells assessed as growth inhibition at 30 uM after 48 hr by SRB assay. In kind it is functional. Particulars: THP-1, 48 h, read-out: GI.
The subject of a further assay is A549. In words: Cytotoxicity against Homo sapiens (human) A549 cells assessed as growth inhibition at 100 uM after 48 hr by SRB assay. In kind it is functional. Particulars: A549, 48 h, read-out: GI.
Assay [32] concerns OVCAR-5. In words: Cytotoxicity against Homo sapiens (human) OVCAR5 cells assessed as growth inhibition at 30 uM after 48 hr by SRB assay. In kind it is functional. Conditions: OVCAR-5, 48 h, read-out: GI.
For assay [33], the system named is THP-1. Kind of assay: Cytotoxicity against Homo sapiens (human) THP1 cells assessed as growth inhibition at 100 uM after 48 hr by SRB assay. In kind it is functional. Conditions: THP-1, 48 h, read-out: GI.
The subject of assay [34] is MCF7. Kind of assay: Cytotoxicity against Homo sapiens (human) MCF7 cells assessed as growth inhibition at 10 uM after 48 hr by SRB assay. In kind it is functional. Particulars: MCF7, 48 h, read-out: GI.
The subject of assay [35] is CV-1. In words: Cytotoxicity against Chlorocebus aethiops (African green monkey) CV1 cells assessed as growth inhibition at 50 uM after 48 hr by SRB assay. In kind it is functional. Conditions: CV-1, 48 h, read-out: GI.
Assay [36] deals with CV-1. Kind of assay: Cytotoxicity against Chlorocebus aethiops (African green monkey) CV1 cells assessed as growth inhibition at 100 uM after 48 hr by SRB assay. In kind it is functional. Conditions: CV-1, 48 h, read-out: GI.
In assay [37] the test system is THP-1. Kind of assay: Cytotoxicity against Homo sapiens (human) THP1 cells assessed as growth inhibition at 10 to 100 uM after 48 hr by SRB assay. In kind it is functional, cell-based.
Assay [38] concerns MCF7. In words: Cytotoxicity against Homo sapiens (human) MCF7 cells assessed as growth inhibition at 10 to 100 uM after 48 hr by SRB assay. In kind it is functional, cell-based.

In general, MIC refers to the least concentration at which growth counts as inhibited. With `O=Cc1ccc(CO)o1` [AES-103], the MIC in the assay with Bacillus subtilis [1] was 100 µg/mL (≈ 793 µM); in the assay on Staphylococcus aureus [5], 200 µg/mL (≈ 1590 µM); in the assay on Escherichia coli [6], 400 µg/mL (≈ 3170 µM). Moreover, the zone of inhibition at 2000 µg/mL in the assay with Bacillus subtilis [2] stood at 11.5 mm; in the assay with Escherichia coli [7], 9 mm; in the assay with Saccharomyces cerevisiae [14], 8.1 mm; with Staphylococcus aureus [16] it was 13.1 mm. Besides, the “growth inhibition (GI)” value with Goffeauzyma gastrica [3], in the assay with Salmonella typhi [10], in the assay on Pseudomonas aeruginosa [12] and in the assay with Candida albicans [13] was “inactive” each time. For the same compound, the MIC result in the assay with Saccharomyces cerevisiae [4], in the assay on Salmonella typhi [8], in the assay with Candida albicans [9], with Pseudomonas aeruginosa [11] and with Goffeauzyma gastrica [15] was “inactive” in each case.

Regarding `OC(Cn1cncn1)(Cn1cncn1)c1ccc(F)cc1F` [FLUCONAZOLE], the zone of inhibition at 10 µg/disc was 20 mm with Candida albicans [17], 19.7 mm with Goffeauzyma gastrica [18] and 21 mm in the assay on Saccharomyces cerevisiae [19].

A word on the IC50: it is the point on the concentration scale where inhibition reaches its midpoint. For the compound `CC(=O)NC12C=CC(=O)C=CC1c1c(cc(O)c(O)c1O)CC2C` (stereo not drawn), the inhibition of growth at 30 µM in the assay on CV-1 [20] was 13%; in the assay with MCF7 [22], 33%; in the assay on THP-1 [31], 55%; in the assay on OVCAR-5 [32], 17%. In addition, the inhibition of growth at 100 µM in the assay with OVCAR-5 [21] came to 43%; in the assay with MCF7 [25], 70%; in the assay with A549, 23%; in the assay on THP-1 [33], 80%; in the assay with CV-1 [36], 35%. For the same compound, the MIC in the assay on Bacillus subtilis [1] is 50 µg/mL (≈ 152 µM); in the assay on Saccharomyces cerevisiae [4] (MTCC 172, 48 h) it was 25 µg/mL (≈ 75.9 µM); in the assay on Staphylococcus aureus [5], 25 µg/mL (≈ 75.9 µM); in the assay on Escherichia coli [6] it was 100 µg/mL (≈ 304 µM); with Candida albicans [9] (MTCC 3018, 48 h) it was 12.5 µg/mL (≈ 38 µM); in the assay on Pseudomonas aeruginosa [11] (MTCC 2642, 24 h), more than 100 µg/mL. For the same compound, in the assay on Goffeauzyma gastrica [15] (MTCC 1715, 48 h), the MIC stood at 50 µg/mL (≈ 152 µM). The zone of inhibition at 2000 µg/mL in the assay on Bacillus subtilis [2] came out at 17.5 mm; with Goffeauzyma gastrica [3] (MTCC 1715, 48 h, read-out: DIZ), 15.3 mm; in the assay on Escherichia coli [7] it was 13.3 mm; in the assay with Pseudomonas aeruginosa [12] (MTCC 2642, 24 h, read-out: DIZ), 11.9 mm; in the assay on Candida albicans [13] (MTCC 3018, 48 h, read-out: DIZ), 18.9 mm; in the assay with Saccharomyces cerevisiae [14], 16.9 mm. Also, the zone of inhibition at 2000 µg/mL with Staphylococcus aureus [16] came to 15.7 mm. Also, the inhibition of growth at 50 µM stood at 52% in the assay with MCF7 [23], 33% with OVCAR-5 [26], 67% with THP-1 [28] and 19% in the assay on CV-1 [35]. Besides, the figures for the inhibition of growth at 10 µM with THP-1 [24], in the assay with OVCAR-5 [30] and in the assay with MCF7 [34] were 48%, 9% and 26%, respectively. The IC50 with THP-1 [27] turned out to be 30 µg/mL (≈ 91.1 µM); in the assay with MCF7 [29] it was 50 µg/mL (≈ 152 µM). In addition, the MIC entry in the assay on Salmonella typhi [8] is “inactive”. The “growth inhibition (GI)” value in the assay with Salmonella typhi [10] was “inactive”.

Take `COC(=O)c1ccc(O)cc1C(=O)OC`: the “growth inhibition (GI)” value with THP-1 [37] and in the assay on MCF7 [38] was “Active” in each case. Also, the “growth inhibition (GI)” value in the assay with Bacillus subtilis [2], in the assay with Goffeauzyma gastrica [3], in the assay on Escherichia coli [7], with Salmonella typhi [10], in the assay on Pseudomonas aeruginosa [12] and with Candida albicans [13] was “inactive” throughout. In addition, the “growth inhibition (GI)” value in the assay on Saccharomyces cerevisiae [14] and in the assay with Staphylococcus aureus [16] was “inactive” each time.
